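48-hour exposure; five concentrations; linearly interpolated endpoints. At the GI50, growth is halved.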 Activity calls are given as the source filed them. No stated cut-off is given here; in the data, active = GI50 up to about 1.1 µM and inactive = higher.
Key:
Test in all cases: NCI anticancer screen, dose series, 48 h
NCI-H522 = test system: NCI-H522
SR = test system: SR
NCI-H460 = test system: NCI-H460
LOX IMVI = test system: LOX IMVI
CCRF-CEM = test system: CCRF-CEM
IGROV-1 = test system: IGROV-1
SF-539 = test system: SF-539
KM12 = test system: KM12
OVCAR-5 = test system: OVCAR-5
OVCAR-4 = test system: OVCAR-4
NCI-H226 = test system: NCI-H226
MDA-N = test system: MDA-N
SN12C = test system: SN12C
T47D = test system: T47D
SF-268 = test system: SF-268
SK-MEL-28 = test system: SK-MEL-28
EKVX = test system: EKVX
TK-10 = test system: TK-10
HCT-116 = test system: HCT-116
NCI-H23 = test system: NCI-H23

Compound	GI50 (NCI-H522)	GI50 (SR)	GI50 (NCI-H460)	GI50 (LOX IMVI)	GI50 (CCRF-CEM)	GI50 (IGROV-1)	GI50 (SF-539)	GI50 (KM12)	GI50 (OVCAR-5)	GI50 (OVCAR-4)	GI50 (NCI-H226)	GI50 (MDA-N)	GI50 (SN12C)	GI50 (T47D)	GI50 (SF-268)	GI50 (SK-MEL-28)	GI50 (EKVX)	GI50 (TK-10)	GI50 (HCT-116)	GI50 (NCI-H23)
NC(=O)C(C(N)=O)=C(O)/C(O)=C/C(=O)c1ccccc1	16.4 µM (inactive)	1.99 µM (inactive)	> 100 µM (inactive)	89.9 µM (inactive)	21.5 µM (inactive)	> 100 µM (inactive)	> 100 µM (inactive)	> 100 µM (inactive)	> 100 µM (inactive)	> 100 µM (inactive)	> 100 µM (inactive)	> 100 µM (inactive)	> 100 µM (inactive)	> 100 µM (inactive)	> 100 µM (inactive)	> 100 µM (inactive)	> 100 µM (inactive)	> 100 µM (inactive)	> 100 µM (inactive)	> 100 µM (inactive)
O=S(=O)(Nc1ccccc1S(=O)(=O)c1ccccc1)c1ccccc1	41.2 µM (inactive)	> 100 µM (inactive)		> 100 µM (inactive)	42.7 µM (inactive)	> 100 µM (inactive)	> 100 µM (inactive)	56.8 µM (inactive)	> 100 µM (inactive)	51.3 µM (inactive)	> 100 µM (inactive)	> 100 µM (inactive)	> 100 µM (inactive)	59.3 µM (inactive)	91 µM (inactive)	> 100 µM (inactive)	29.4 µM (inactive)	> 100 µM (inactive)	77.1 µM (inactive)	46.7 µM (inactive)
COc1ccc(C2=Nn3c(nc4sc(-c5ccccc5)cc4c3=O)SC2)cc1	> 100 µM (inactive)	> 100 µM (inactive)	48.4 µM (inactive)	> 100 µM (inactive)	> 100 µM (inactive)	> 100 µM (inactive)	> 100 µM (inactive)	81.1 µM (inactive)	> 100 µM (inactive)		> 100 µM (inactive)	81.8 µM (inactive)	> 100 µM (inactive)	> 100 µM (inactive)	> 100 µM (inactive)	> 100 µM (inactive)	> 100 µM (inactive)	> 100 µM (inactive)	92.3 µM (inactive)	> 100 µM (inactive)
[N-]=[N+]=Nc1c([N+](=O)[O-])c(=O)n(-c2ccccc2)c2ccccc12	25.8 µM (inactive)	25.2 µM (inactive)	30.6 µM (inactive)	17.5 µM (inactive)	29.4 µM (inactive)	21.7 µM (inactive)	25.5 µM (inactive)	26.7 µM (inactive)	> 100 µM (inactive)	18.3 µM (inactive)	25.5 µM (inactive)	27.2 µM (inactive)	23.4 µM (inactive)	29.1 µM (inactive)	22.5 µM (inactive)	26.5 µM (inactive)	16.7 µM (inactive)	14.2 µM (inactive)	20.3 µM (inactive)	22 µM (inactive)
Cn1nc(/C=C\C(=O)N2CC(CCl)c3c2cc(N)c2ccccc32)cc1/C=C/C(=O)N1CC(CCl)c2c1cc(N)c1ccccc21 (configuration not stated)	< 0.01 µM (active)	< 0.01 µM (active)	< 0.01 µM (active)	< 0.01 µM (active)	< 0.01 µM (active)		< 0.01 µM (active)	< 0.01 µM (active)	< 0.01 µM (active)	< 0.01 µM (active)	< 0.01 µM (active)	< 0.01 µM (active)	< 0.01 µM (active)	< 0.01 µM (active)	< 0.01 µM (active)	< 0.01 µM (active)	0.0215 µM (active)	< 0.01 µM (active)	< 0.01 µM (active)	< 0.01 µM (active)
Cc1cc(=O)oc2c3c(ccc12)OC(c1ccc(Br)cc1)CC3=O (configuration not stated)	4.42 µM (inactive)	3.23 µM (inactive)	15 µM (inactive)	2.98 µM (inactive)	2.21 µM (inactive)	10.7 µM (inactive)	9.98 µM (inactive)	13.9 µM (inactive)	16.3 µM (inactive)	26.5 µM (inactive)	18 µM (inactive)	8.13 µM (inactive)	5.42 µM (inactive)	0.177 µM (active)	10.2 µM (inactive)	8.67 µM (inactive)	15.1 µM (inactive)	13.7 µM (inactive)	10.3 µM (inactive)	12.1 µM (inactive)
OCc1cn(Cc2ccccc2)c2ccccc12	4.65 µM (inactive)	12.4 µM (inactive)	0.135 µM (active)	19.5 µM (inactive)	0.488 µM (active)	< 0.0356 µM (active)	> 34.5 µM (inactive)	> 48 µM (inactive)	0.375 µM (active)	0.0378 µM (active)		35.6 µM (inactive)	26 µM (inactive)	< 0.0411 µM (active)	14 µM (inactive)	> 59.3 µM (inactive)	> 73.1 µM (inactive)	< 0.0359 µM (active)	0.555 µM (active)	14.4 µM (inactive)
C=CCNC(=S)NC=C(C(N)=O)C(N)=O	> 100 µM (inactive)	> 100 µM (inactive)	> 100 µM (inactive)	> 100 µM (inactive)	> 100 µM (inactive)	> 100 µM (inactive)	> 100 µM (inactive)	> 100 µM (inactive)	> 100 µM (inactive)	> 100 µM (inactive)	> 100 µM (inactive)	> 100 µM (inactive)	> 100 µM (inactive)	> 100 µM (inactive)	> 100 µM (inactive)	> 100 µM (inactive)	> 100 µM (inactive)		> 100 µM (inactive)	> 100 µM (inactive)
CC(C)CC(NC=O)C(=O)NC(Cc1ccccc1)NC(=O)CNC(=O)C(C)NC(=O)OC(C)(C)C (configuration not stated)	> 100 µM (inactive)	> 100 µM (inactive)	> 100 µM (inactive)	> 100 µM (inactive)		> 100 µM (inactive)	> 100 µM (inactive)	> 100 µM (inactive)	> 100 µM (inactive)	> 100 µM (inactive)	> 100 µM (inactive)	> 100 µM (inactive)	> 100 µM (inactive)	> 100 µM (inactive)	> 100 µM (inactive)	> 100 µM (inactive)	> 100 µM (inactive)	> 100 µM (inactive)	> 100 µM (inactive)	> 100 µM (inactive)
C=CCOC(=O)CC[C@H](NC(=O)[C@@H](CCC(F)(F)F)Cc1ccc(O)cc1)C(=O)OCC=C	24.3 µM (inactive)	32.5 µM (inactive)		55.2 µM (inactive)		> 100 µM (inactive)	90.2 µM (inactive)	> 100 µM (inactive)	> 100 µM (inactive)	65.2 µM (inactive)	> 100 µM (inactive)	32.7 µM (inactive)	45.4 µM (inactive)	20.6 µM (inactive)	41 µM (inactive)	23.7 µM (inactive)	27.3 µM (inactive)		> 100 µM (inactive)	38.5 µM (inactive)
Cc1nc2c(=O)[nH]c3ccc(Cl)cc3c2o1	> 100 µM (inactive)	> 100 µM (inactive)	> 100 µM (inactive)	> 100 µM (inactive)	> 100 µM (inactive)	89.7 µM (inactive)	> 100 µM (inactive)	> 100 µM (inactive)	> 100 µM (inactive)	> 100 µM (inactive)	> 100 µM (inactive)	> 100 µM (inactive)	> 100 µM (inactive)	> 100 µM (inactive)	> 100 µM (inactive)		69.7 µM (inactive)	> 100 µM (inactive)	> 100 µM (inactive)	> 100 µM (inactive)
CC[C@@]1(O)C(=O)OCc2c1cc1n(c2=O)Cc2c-1nc1ccccc1c2/C=N\NC(=O)C(N)Cc1ccc(O)cc1 (some centres not stated)	0.998 µM (active)	< 0.0188 µM (active)	0.187 µM (active)	0.189 µM (active)	< 0.0236 µM (active)	2.52 µM (inactive)	0.0731 µM (active)	3.37 µM (inactive)		6.61 µM (inactive)	0.15 µM (active)	3.35 µM (inactive)	0.228 µM (active)	0.285 µM (active)	0.202 µM (active)	6.24 µM (inactive)	2.57 µM (inactive)	> 31.6 µM (inactive)	0.804 µM (active)	0.233 µM (active)
COC(=O)C1CCC(=O)N1CN(C(C)=O)c1ccccc1Cl (configuration not stated)	> 100 µM (inactive)	> 100 µM (inactive)	> 100 µM (inactive)	> 100 µM (inactive)		> 100 µM (inactive)	> 100 µM (inactive)	> 100 µM (inactive)	> 100 µM (inactive)	> 100 µM (inactive)	> 100 µM (inactive)	> 100 µM (inactive)	> 100 µM (inactive)	> 100 µM (inactive)	> 100 µM (inactive)	> 100 µM (inactive)	> 100 µM (inactive)	> 100 µM (inactive)	> 100 µM (inactive)	> 100 µM (inactive)
CCCCCCCCCCCC1NC(N)=NC(CCCO)=C1C(=O)OC (configuration not stated)	1.77 µM (inactive)	3.33 µM (inactive)	1.94 µM (inactive)	1.66 µM (inactive)	1.59 µM (inactive)	1.84 µM (inactive)	2.96 µM (inactive)	1.61 µM (inactive)	6.62 µM (inactive)	2.97 µM (inactive)	6.3 µM (inactive)	2.44 µM (inactive)	2.47 µM (inactive)	5.09 µM (inactive)	2.48 µM (inactive)		16.1 µM (inactive)	2.23 µM (inactive)	1.92 µM (inactive)	2.08 µM (inactive)

From ChEMBL document CHEMBL1201862, “PubChem BioAssay data set” (2004)
